Assay results published in US11986489B2, “Method of treating a disease using a glycolytic dependent compound” (Ethicon, Inc., priority 2015, dated 2024).
Where a name gives a salt, the structure may show the parent alone. Read-outs that look alike come from different tables or passages of the source.

Experiments:
[1] = WST-1 viability of NHDF cells treated with Dox with or without ORC; type: cell-based, Human; details: human, NHDF cells (normal human dermal fibroblasts), NHDF cells, 16-18 hours, WST-1; for cytotoxicity at 5 μM: Dox 5 μM; for cytotoxicity at 25 μM: Dox 25 μM; for cytotoxicity at 50 μM: Dox 50 μM
Procedure: (§1) NU-KNIT® (ORC) patch: NU-KNIT® was cut with an 8 mm punch to form 8 mm circles of Nuknit. These circles were then cut into 4 quarters using sterile scissors (each quarter has a weight of 2.2-2.7 mg, Average 2.44 mg, n=10).
(§2) Day 1: Two 24-well plates were seeded with 15,000 NHDF cells/well using a 15,000 cells/ml suspension according to the plate layout below (representing about 20%-30% confluency of cells).
(§3) The plates were incubated overnight, for 16-18 hours, in a water jacketed 37° C. incubator with 5% CO2.
(§4) The cells at this stage were about 40%-50% confluent.
(§5) Immediately, a NuKnit® ¼ punch was added to the wells according to the plate layout.
(§6) Day 3: The untreated cells at this stage were about 60%-70% confluent. The plate's medium was decanted and replaced with 0.5 ml of Growth medium. 50 μl of WST-1 were added to each well. The plates were then incubated for an additional 4 hours.
(§7) The plates were then read with an ELISA reader at 450 nm and 650 nm Optical Density (OD). Wells containing medium with no cells were used as blank.
(§8) The results obtained by ELISA reader at 650 nm were subtracted from the results obtained at 450 nm per each well separately=sample OD.
(§9) The relative viability of the rest of the wells was calculated according to the following calculation: sample OD/untreated OD×100. The results were depicted in FIG. 2.
(§10) The following experiment was set in order to evaluate the effect of ORC on Doxorubicin activity on Normal Human Dermal Fibroblast (NHDF) cells. Doxorubicin activity will be expressed in relative cell viability compared to untreated cells. […] The final viability of the cells was evaluated with WST-1 staining. WST-1 is a Tetrazolium salts that is only cleaved to Formazan in metabolically active intact cells.

[2] = test system: Normal Human Dermal Fibroblast (NHDF) cells; experiment: as above; type: cell-based; details: for Potency increase of Dox in the presence of ORC: with ORC divided by without ORC
Procedure: as §1, §2, §3, §4, §5, §6, §7, §8, §9, §10

[3] = human, in vivo
Excerpt: Clinically, a half-life of a given compound is the amount of time required for the compound to fall e.g. in the circulation to half its initial administered dose i.e. how long it takes for the body to remove half of the administered dose. Typically, compounds are active for a multiple of their half-life, for example, five times the half-life can be used to describe the time period for a therapy's treatment. In the case of many therapies, this translates into days where the drug is having an effect on targeted tissues. All clinically used and approved drugs will have well described time ranges and amounts for calculating dose and therapy plans. In one embodiment, the performance of the compound in addressing the underlying pathology e.g. malignancy is adjusted in view of the presence of ORC, and/or OC that can localize the therapy at the target site during the limited time the compound is in the body and before it is being processed.
In certain embodiments a “therapeutically effective dose” refers to the median effective dose ED50, for a particular know drug. […] Mean: 1-3 hours. Typically, 5 times the elimination half-life will give the time at which point the drug has been completely eliminated from the body. For Doxorubicin this would be 5-15 hours.

[4] = in vivo; cited from earlier work
[5] = with ORC (¼ Nuknit of 8 mm), read-out: With ORC relative reduction of viability (%)
[6] = without ORC, read-out: Without ORC relative reduction of viability (%)

`COc1cccc2c1C(=O)c1c(O)c3c(c(O)c1C2=O)C[C@@](O)(C(=O)CO)C[C@@H]3O[C@H]1C[C@H](N)[C@H](O)[C@H](C)O1` [Dox, Doxorubicin hydrochloride] gave a cytotoxicity at 5 μM [1, 5] of about 55%, a cytotoxicity at 5 μM [1, 6] of about 30% and a cytotoxicity at 25 μM [1, 5] of about 74%. The cytotoxicity at 25 μM [1, 6] was about 40%, the cytotoxicity at 50 μM [1, 5] was 80% and the cytotoxicity at 50 μM [1, 6] was 65%. The “Potency increase of Dox in the presence of ORC” value (“Potency increase of Dox” below) ([2]; Dox 5 μM) was 1.89, the “Potency increase of Dox” value ([2]; Dox 25 μM) was 1.83 and the “Potency increase of Dox” value ([2]; Dox 50 μM) was 1.24. The “Dox concentration at which the viability reduction is already evident” value ([2]; NHDF cells, in the absence of ORC) was 5.0 µM, the “Effect of Dox on the viability of NHDF cells” value ([2]; in the absence of ORC) was “reduces the viability of NHDF cells, in the absence of ORC in a dose dependent manner” and the “time at which the drug has been completely eliminated from the body” value [3] was 5 to 15 h. The “biological half-life, mean” value [4] was 1-3 hours and the “biological half-life, triphasic, third phase” value [4] was 30 hours.

In the case of `CO[C@H]1C[C@@H]2CC[C@@H](C)[C@@](O)(O2)C(=O)C(=O)N2CCCC[C@H]2C(=O)O[C@H]([C@H](C)C[C@@H]2CC[C@@H](OCCO)[C@H](OC)C2)CC(=O)[C@H](C)/C=C(\C)[C@@H](O)[C@@H](OC)C(=O)[C@H](C)C[C@H](C)/C=C/C=C/C=C/1C` [Everolimus], the half-life [4] is listed as “about 30 hours”.

In the case of `Cc1ccc(Nc2nccc(N(C)c3ccc4c(C)n(C)nc4c3)n2)cc1S(N)(=O)=O` [Pazopanib], the half-life [4] is listed as “about 31 hours”.

In the case of `CNC(=O)c1cc(Oc2ccc(NC(=O)Nc3ccc(Cl)c(C(F)(F)F)c3)cc2)ccn1` [Sorafenib], the half-life [4] is given as 20 to 27 h.

In the case of `CCN(CC)CCNC(=O)c1c(C)[nH]c(/C=C2\C(=O)Nc3ccc(F)cc32)c1C` [Sunitinib], the half-life [4] is listed as 41 to 86 h.

In the case of `CO[C@H]1C[C@@H]2CC[C@@H](C)[C@@](O)(O2)C(=O)C(=O)N2CCCC[C@H]2C(=O)O[C@H]([C@H](C)C[C@@H]2CC[C@@H](OC(=O)C(C)(CO)CO)[C@H](OC)C2)CC(=O)[C@H](C)/C=C(\C)[C@@H](O)[C@@H](OC)C(=O)[C@H](C)C[C@H](C)/C=C/C=C/C=C/1C` [Temsirolimus], the half-life [4] is given as “about 17.3 hours”.
